The results in this text go back to ChEMBL document CHEMBL4145688, “Potent and Orally Bioavailable Inverse Agonists of RORγt Resulting from Structure-Based Design” (J Med Chem, 2018).

For this test, the system named is Homo sapiens. Kind of test: Reduction in psoriasis-severity index in psoriasis patient dosed orally during phase 2a study. The class given is functional. More on the design: scale not given: the % may be the effect or the level left.

Compound `CCS(=O)(=O)c1ccc(CNC(=O)c2cnc3c(c2)CN(C[C@H]2CC[C@H](C(F)(F)F)CC2)[C@H]3C(C)C)nc1` displayed an Activity of 24%.
